Source: patent US4176185A, “Spiro-quinolylhydantoins” (Pfizer Inc., priority 1979, dated 1979)

Tests used:
aldose reductase = assay: inhibition of aldose reductase enzyme activity; format: biochemical; details: partially purified aldose reductase from calf lens
Source text: (§1) The activity of the compounds of the present invention as agents for the control of chronic diabetic complications may be determined by a number of standard biological or pharmacological tests. Suitable tests include (1) measuring their ability to inhibit the enzyme activity of isolated aldose reductase; (2) measuring their ability to reduce or inhibit sorbitol accumulation in the sciatic nerve of acutely streptozotocinized (i.e. diabetic) rats; (3) measuring their ability to reverse already-elevated sorbitol levels in the sciatic nerve and lens of chronic streptozotocin-induced diabetic rats; (4) measuring their ability to prevent or inhibit galactitol formation in the lens of acutely galactosemic rats; and (5) measuring their ability to delay cataract formation and reduce the severity of lens opacities in chronic galactosemic rats.
The compounds of Examples 3 and 6 were tested for their ability to reduce or inhibit aldose reductase enzyme activity, following the procedure described in U.S. Pat. No. 3,821,383 and based on the procedure of Hayman et. al., Journal of Biological Chemistry, 240, 877 (1965). The substrate employed was partially purified aldose reductase enzyme obtained from calf lens. The results obtained with each compound at a concentration of 10^-4 M are expressed as percent inhibition of enzyme activity.

[1] = system: sorbitol accumulation in the sciatic nerve; assay: inhibition of sorbitol accumulation in the sciatic nerve of streptozotocinized (diabetic) rats; format: in vivo, rat; details: measured 27 h after induction of diabetes, vs untreated
Source text: as §1
The compounds of Examples 3 and 6 were tested for their ability to reduce or inhibit sorbitol accumulation in the sciatic nerve of streptozotocinized (i.e. diabetic) rats by the procedure essentially described in U.S. Pat. No. 3,821,383. In the present study, the amount of sorbitol accumulation in the sciatic nerves was measured 27 hours after induction of diabetes. The compounds were administered orally at the dose levels indicated at 4, 8 and 24 hours following the administration of streptozotocin. […]

| Compound | % Inhibition at 10^-4 M (aldose reductase enzyme activity) (aldose reductase) [%] | % Inhibition (sorbitol accumulation in sciatic nerve) ([1]; 1.5 mg/kg oral at 4, 8 and 24 h after streptozotocin) [%] | % Inhibition (sorbitol accumulation in sciatic nerve) ([1]; 10 mg/kg oral at 4, 8 and 24 h after streptozotocin) [%] |
| --- | --- | --- | --- |
| O=C1NC(=O)C2(CCOc3c2ccc2cccnc32)N1 (stereo not shown) [Example 3] | 75 | 27 | – |
| O=C1NC(=O)C2(CCOc3c2ccc2ncccc32)N1 (stereo not shown) [Example 6] | 94 | – | 92 |
